Results from patent publication US20260021159A1, “STABLE PEPTIDE COMPOSITIONS AND METHODS OF USE THEREOF FOR TREATMENT OF MODERATE/SEVERE DRY EYE-RELATED OCULAR SYMPTOMS” (TearSolutions, Inc., priority 2022, published 2026).
“Also recorded” adds a separate entry of the source.

What was measured:
Assay type in all cases: in vivo, human
[1] = test system: subjects with ocular surface disease associated with Primary Sjögren's Syndrome; test: Corneal fluorescein staining (CFS, NEI scale) in Lacripep clinical study NCT 03226444
Protocol: (§1) The primary objective of this study was to evaluate the safety and tolerability of 22 and 44 μM Lacripep™ ophthalmic solution versus placebo (vehicle) administered three times daily for 28 days in subjects with a history of ocular surface disease associated with Primary Sjögren's Syndrome, including subjects with mild dry eye symptoms. Additionally, many dry eye signs and symptoms were assessed.
(§2) This was a multi-center, randomized, placebo-controlled, double-masked, parallel-group study conducted at 35 sites in the United States, and approved by local institutional review boards. Written informed consent was obtained from all subjects after review of risks and benefits of participation. The study was conducted in accordance with the Health Insurance Portability and Accountability Act of 1996 and Declaration of Helsinki of 1996 and registered at ClinicalTrials.gov: NCT 03226444.
(§3) The study duration was 56 days, including a 14-day run-in period, a 28-day active treatment period, and 14-day follow-up period (wash-out) (see FIG. 2). Measurements were collected at five scheduled visits.
Screening and Eligibility: At Visit 1 (Screening) informed consent was obtained from subjects and eligibility was determined requiring documentation of Primary Sjögren's Syndrome per the American-European Consensus Group Sjögren's Syndrome Criteria. Subjects were at least 18 years of age with a history of dry eye-related symptoms and use of eye-wetting agents within the past 120 days. Major inclusion criteria at the screening and subsequent baseline visits included: • 1. CFS total score >4 and <15 in the National Eye Institute Industry Workshop (NEI) scale (Protocol Appendix 6) • 2. Symptom Severity score of ≥40 using the Symptom Assessment in Dry Eye (SANDE) questionnaire • 3. Anesthetized Schirmer test score […] • 4. LGCS total score ≥5 using the NEI scale
(§4) Randomization and Treatment: At Visit 2 (Baseline/Randomization) eligibility was confirmed. All criteria were met in the same study eye. […] Eligible subjects were randomly assigned to one of the three treatment groups: one of two Lacripep™ ophthalmic solution strengths (22 μM or 44 μM) or placebo (vehicle).
(§5) One drop of investigational product was administered three times a day (TID) to both eyes for 28 days. At Visit 3 (Week 2) and Visit 4 (Week 4) efficacy and safety evaluations were performed. Subjects who discontinued before Visit 4 underwent Visit 4 evaluations (Early Termination).
(§6) Efficacy: All efficacy assessments were performed in both eyes, and by the same person if possible. […] Lissamine green conjunctival staining (LGCS) was assessed in 6 regions on a 0 to 3 scale (total 0 to 18). All sites were trained and tested on NEI scoring methodology.
The primary efficacy measurement was mean change from Baseline to Day 28 in CFS total score (NEI/Industry Workshop 0-15 scale, 0-3 scale in each of 5 regions) in the study eye. The key secondary efficacy measurement was mean change from Baseline to Day 28 in Eye Dryness Score (VAS from 0 to 100 mm) from Individual Symptom Assessments.
The change from Baseline in CFS to Day 14 and to post treatment follow-up (Day 42) were additional secondary measurements. Other secondary measurements included changes from baseline to Day 14 and Day 28 in the LGCS scores, TFBUT, and Schirmer tests. Secondary symptom measurements included changes from baseline to Day 14 and Day 28 in the SANDE and each of the Individual Symptom Assessments. […]

[2] = test system: subjects with ocular surface disease associated with Primary Sjögren's Syndrome; test: Lissamine green conjunctival staining (LGCS, NEI scale) in Lacripep clinical study
Protocol: as §1, §2, §3, §4, §5, §6
The change from Baseline in CFS to Day 14 and to post treatment follow-up (Day 42) were additional secondary measurements. Other secondary measurements included changes from baseline to Day 14 and Day 28 in the LGCS scores, TFBUT, and Schirmer tests. Secondary symptom measurements included changes from baseline to Day 14 and Day 28 in the SANDE and each of the Individual Symptom Assessments.
Post-Hoc Efficacy Analysis: Post-hoc, all primary and secondary endpoints were assessed for treatment effect controlling for baseline Eye Dryness Score (EDS) using analysis of covariance (ANCOVA). All ANCOVA models were fit using the Proc Mixed procedure in SAS. Post-hoc analysis was also performed using all observed data in the ITT set, without imputation. […] Subgroups were then evaluated according to baseline EDS.

[3] = test system: subjects with ocular surface disease associated with Primary Sjögren's Syndrome; test: Burning/Stinging individual symptom assessment (VAS) in Lacripep clinical study
Protocol: as §1, §2, §3, §4
One drop of investigational product was administered three times a day (TID) to both eyes for 28 days. […]
Tear film break-up time (TBUT) was measured in seconds. The Symptom Assessment in Dry Eye (SANDE) inventory version 1 and version 2 measured patient-rated symptom severity and frequency using a visual-analogue scale. The Individual Symptom Assessments (instantaneous and Reflective) measured patient-reported symptoms on a visual-analogue scale (VAS). […]
Post-Hoc Efficacy Analysis: Post-hoc, all primary and secondary endpoints were assessed for treatment effect controlling for baseline Eye Dryness Score (EDS) using analysis of covariance (ANCOVA). […] Subgroups were then evaluated according to baseline EDS.

[4] = 22 μM TID, day 14, prespecified analysis

Substance: Ac-Lys-Gln-Phe-Ile-Glu-Asn-Gly-Ser-Glu-Phe-Ala-Gln-Lys-Leu-Leu-Lys-Lys-Phe-Ser-NH2 (Ac-KQFIENGSEFAQKLLKKFS-NH2) [Lacripep™, synthetic 19 amino acid peptide fragment of lacritin]
- Improvement in total CFS score vs placebo ([1]; 22 μM TID, day 14, baseline EDS set, p=0.03): 1.2
- Improvement from baseline in inferior region CFS score vs. placebo [1, 4]: statistically significant
- Treatment effect on inferior CFS after washout ([1]; 22 μM, day 42 post-treatment follow-up, subset baseline EDS): falling off after washout
- Difference in inferior region CFS score vs. placebo ([1]; 44 μM TID (higher dose group), subset baseline EDS≥60): Positive (though not statistically significant) differences; also recorded: positive but not significant effect
- Primary endpoint of CFS score at day 28 ([1]; day 28, change from baseline in CFS total score vs placebo): not met
- Improvement in change from baseline LGCS total score vs. placebo ([2]; 22 μM TID, day 14, subset baseline EDS≥60, p=0.017): 1.5
- Improvement in LGCS segment 5 vs. placebo ([2]; 22 μM TID, day 14, subset baseline EDS≥60, p=0.038): 0.4
- Improvement in LGCS segment 1 vs. placebo ([2]; 22 μM TID, day 14, subset baseline EDS≥60, p=0.049): 0.4
- Improvement in LGCS ([2]; prespecified secondary endpoint analysis): not statistically significant
- Improvement from baseline in Burning/Stinging symptom (reflective VAS rating) vs. placebo [3, 4]: statistically significant
- Burning/Stinging symptom vs placebo at later time points ([3]; both dose groups (22 and 44 μM), day 28 and day 42, not statistically significant): trend better than the placebo group
- Burning/Stinging symptom treatment effect ([3]; both dose groups, day 28, subset baseline EDS of ≥60): positive but not significant effect
